From patent publication US9458188B2, “Efficient peptide couplings and their use in the synthesis and isolation of a cyclopenta (G) quinazoline trisodium salt” (BTG INTERNATIONAL LIMITED, priority 2010, dated 2016)

Key:
[1] = Chemical stability under acidic conditions; type: physicochemical; conditions: pH 5
Experimental: The reported chemistry was carried out on a very small scale, with no detailed analysis of the purity profile of the product 1.

thymidilate synthase = conditions: read-out: IC50 for the enzyme (thymidilate synthase); cited from earlier work
[2] = target: T1, reduced folate carrier protein (RFCP) (Homo sapiens, UniProt P41440); conditions: not a substrate for RFCP; cited from earlier work
T1 sequence (P41440 1-591): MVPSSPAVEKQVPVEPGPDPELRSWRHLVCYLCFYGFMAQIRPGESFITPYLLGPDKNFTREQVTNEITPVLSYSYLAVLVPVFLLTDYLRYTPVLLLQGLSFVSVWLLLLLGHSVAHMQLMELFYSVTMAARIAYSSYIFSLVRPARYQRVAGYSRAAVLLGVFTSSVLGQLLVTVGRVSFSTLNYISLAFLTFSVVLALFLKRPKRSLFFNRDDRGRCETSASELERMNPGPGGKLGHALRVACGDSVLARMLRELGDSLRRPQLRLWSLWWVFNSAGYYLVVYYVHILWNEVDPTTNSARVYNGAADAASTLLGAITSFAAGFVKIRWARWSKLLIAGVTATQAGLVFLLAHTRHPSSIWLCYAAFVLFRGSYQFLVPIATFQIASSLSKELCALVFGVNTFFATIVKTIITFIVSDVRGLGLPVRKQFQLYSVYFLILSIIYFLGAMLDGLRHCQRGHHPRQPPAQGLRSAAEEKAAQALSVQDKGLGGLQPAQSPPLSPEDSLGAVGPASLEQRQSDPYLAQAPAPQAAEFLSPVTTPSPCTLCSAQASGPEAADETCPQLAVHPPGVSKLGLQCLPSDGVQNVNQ

folate receptor α (FRα) = folate receptor α (FRα) (Homo sapiens, UniProt P15328); conditions: read-out: Ki (affinity) for folate receptor α (FRα); cited from earlier work
Sequence of folate receptor α (FRα) (P15328 25-234, species assumed): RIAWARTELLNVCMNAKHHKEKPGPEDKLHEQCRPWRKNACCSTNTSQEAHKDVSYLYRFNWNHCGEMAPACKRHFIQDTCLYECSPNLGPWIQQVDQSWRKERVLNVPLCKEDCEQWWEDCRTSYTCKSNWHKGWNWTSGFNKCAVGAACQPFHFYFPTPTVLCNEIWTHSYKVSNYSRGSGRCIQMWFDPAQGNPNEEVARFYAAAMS

[3] = target: T2, polyglutamoylation synthase enzyme (Homo sapiens, UniProt Q05932); conditions: cited from earlier work
T2 sequence (Q05932 43-587): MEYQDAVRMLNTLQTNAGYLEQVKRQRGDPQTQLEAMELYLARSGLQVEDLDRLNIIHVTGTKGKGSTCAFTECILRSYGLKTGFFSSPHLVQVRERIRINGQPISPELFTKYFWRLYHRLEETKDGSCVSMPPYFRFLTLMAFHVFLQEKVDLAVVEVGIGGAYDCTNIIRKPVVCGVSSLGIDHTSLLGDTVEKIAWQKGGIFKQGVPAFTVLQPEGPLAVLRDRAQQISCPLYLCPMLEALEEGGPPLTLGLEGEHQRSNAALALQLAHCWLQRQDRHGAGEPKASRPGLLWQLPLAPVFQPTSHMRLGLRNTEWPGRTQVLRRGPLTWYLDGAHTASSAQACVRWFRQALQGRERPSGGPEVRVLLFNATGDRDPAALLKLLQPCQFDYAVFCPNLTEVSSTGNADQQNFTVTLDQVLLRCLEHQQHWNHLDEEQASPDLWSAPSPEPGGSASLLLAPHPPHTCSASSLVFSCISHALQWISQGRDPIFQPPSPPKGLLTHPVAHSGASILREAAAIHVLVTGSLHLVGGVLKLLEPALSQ

Row | SMILES | Stability in aqueous solution [1] | IC50 (thymidilate synthase) [nM] | Ki [2] [nM] | Ki (folate receptor α (FRα)) [nM] | Substrate for the polyglutamoylation synthase enzyme [3]
1 | C#CCN(c1ccc(C(=O)N[C@@H](CCC(=O)N[C@H](CCC(=O)O)C(=O)O)C(=O)O)cc1)[C@H]1CCc2cc3nc(CO)[nH]c(=O)c3cc21 [Compound 1, (2,R)-((4,S)-carboxy-4-(4,N-(((6S)-2-(hydroxymethyl)-4-oxo-3,4,7,8-tetrahydro-3H-cyclopenta[g]quinazolin-6-yl)-N-(prop-2-ynyl)amino)benzamido)butanamido)pentanedioic acid] | limited stability |  |  |  | 
2 | C#CCN(c1ccc(C(=O)N[C@@H](CCC(=O)N[C@H](CCC(=O)[O-])C(=O)[O-])C(=O)[O-])cc1)[C@H]1CCc2cc3nc(CO)[nH]c(=O)c3cc21.[Na+].[Na+].[Na+] [Compound 2, (2,R)-((4,S)-carboxy-4-(4,N-(((6S)-2-(hydroxymethyl)-4-oxo-3,4,7,8-tetrahydro-3H-cyclopenta[g]quinazolin-6-yl)-N-(prop-2-ynyl)amino)benzamido)butanamido)pentanedioic acid trisodium salt] |  | 3 | > 250000 | 0.5 | not a substrate
